# Reference: patent US20230242558A1, “NICOTINATE AND NICOTINAMIDE RIBOSIDE-BASED COMPOUNDS AND DERIVATIVES THEREOF” (New Frontier Bio, Inc., priority 2022, published 2023)
# Experiments:
# [1] = system: NHDF cells; experiment: General NAD Assay Procedure: total NAD level in NHDF cells (NAD/NADH Quantification Kit); assay type: cell-based; conditions: for increase in NAD levels compared with NMN: 6-hour time point, all concentrations
# Protocol: NHDF cells (Lonza Cat #CC-2511) were plated in 12-well tissue culture plates at a density of 200,000 cells per well in 0.75 mL growth medium (Lonza FGM-2 cat #CC-3132 containing growth factors; cat #CC-4126). The plates were then incubated overnight at 37° C. in a humidified atmosphere of 5% CO2. The next day, dilutions of each test article were prepared in growth medium at 4× the desired final concentration. 250 μL of each dilution was added to respective wells to obtain desired concentration in each well. The cells were incubated for the desired length of time.
# After the incubation, the cell monolayers in each well were washed with cold PBS. 400 μL of extraction buffer (provided in the NAD assay kit) was added and triturated 5-6 time. The cell lysate was collected in Eppendorf tubes and then flash frozen in a dry ice-methanol bath for 20 min then thawed at room temperature. The freeze-thaw cycle was repeated one additional time. The cell lysates were centrifuged and the supernatant collected stored at −80° C. until use.
# An aliquot of extract was used to determine total protein concentration using Pierce BCA kit (Thermo Fisher Cat #23225). The total volumes of each sample were adjusted so that the total protein concentration was same in all samples.
# 50 μL of standards and each sample were added to appropriate wells of a 96-well plate, and the NAD assay according to the kit manufacturer's instructions (NAD/NADH Quantification Kit; Sigma-Aldrich; Catalog Number MAK037). The absorbance at 450 nm was measured using an Envision plate reader (Perkin Elmer) with default settings. The data was normalized against a blank. A standard curve was plotted and used to determine the total NAD level in each test sample.
# [2] = system: HaCaT cells; experiment: NAD assay in HaCaT cells, total NAD level normalized to protein; assay type: cell-based; conditions: 4 hours incubation, concentration not given
# Protocol: The biological activity of certain compounds disclosed herein was determined using the following method: • 1. Plate HaCaT cells in 12-well tissue culture plates at a density of 200,000 cells per well in 0.75 mL DMEM growth medium. Incubate overnight at 37° C. in a incubator at 5% CO2. • 2. Next day, prepare dilutions of each compound in growth medium at the desired final concentration. • 3. Incubate cells as above for 4 hours. • 4. After the incubation, wash cell monolayers in each well with 200 uL PBS and add 200 uL 0.25% Trypsin. Let cells lift for 15 minutes. • 5. Once cells are lifted, collect cells into sterile 1.5 mL Eppendorf tube containing 400 uL of DMEM w/2% HI FBS. • 6. Centrifuge tubes for 500×g for 5 min. • 7. Aspirate supernatant and wash cells with 200 uL of cold PBS. • 8. Centrifuge tubes for 500×g for 5 min. • 9. Aspirate supernatant and add 400 μL of cold extraction buffer (provided in the NAD assay kit) and vortex each tube for 10 seconds. • 10. Centrifuge samples at 13,000×g for 10 min to remove insoluble material. • 11. Use a small aliquot of extract to determine total protein concentration by BCA protein assay kit. • 12. Deproteinize samples by filtering them through a 10 kDa cut-off spin filter. Centrifuge at 13,000×g for 10 min. • 13. After cell lysate is filtered, load 25 uL of samples to 96 well plate for NAD assay. • 14. Add 25 uL of extraction buffer to each well with samples to dilute them 1:2. Add 50 uL of standards to appropriate wells. • 15. Set up master reaction mix of cycling buffer and NAD cycling enzyme mix. Add 100 uL of mix to each well and incubate for […]. • 16. Add 10 uL of developer into each well. • 17. Let plate incubate at room temperature for 1 hr. • 18. Stop the reaction by adding 10 uL of stop solution into each well and mix well. • 19. Measure absorbance at 450 nm using plate reader. • 20. Plot standard curve and normalize data to determine total NAD level.
structure (smiles),measurement,setting,value
"O=C(O)c1ccc[n+]([C@@H]2O[C@H](COP(=O)(O)O)[C@@H](O)[C@H]2O)c1 [Sample 1, Nicotinic acid mononucleotide]",Average Total NAD (pmoles) Concentration from NAD Assay,"[1]; 3-Hour, Conc. 5 μM",38.1 pmol
same,Average Total NAD (pmoles) Concentration from NAD Assay,"[1]; 3-Hour, Conc. 10 μM",55.0 pmol
same,Average Total NAD (pmoles) Concentration from NAD Assay,"[1]; 3-Hour, Conc. 20 μM",59.0 pmol
same,Average Total NAD (pmoles) Concentration from NAD Assay,"[1]; 6-Hour, Conc. 5 μM",72.6 pmol
same,Average Total NAD (pmoles) Concentration from NAD Assay,"[1]; 6-Hour, Conc. 10 μM",77.8 pmol
same,Average Total NAD (pmoles) Concentration from NAD Assay,"[1]; 6-Hour, Conc. 20 μM",79.4 pmol
"NC(=O)c1ccc[n+]([C@@H]2O[C@H](COP(=O)([O-])O)[C@@H](O)[C@H]2O)c1 [NMN, nicotinamide mononucleotide, reference compound]",Average Total NAD (pmoles) Concentration from NAD Assay,"[1]; 3-Hour, Conc. 5 μM",48.5 pmol
same,Average Total NAD (pmoles) Concentration from NAD Assay,"[1]; 3-Hour, Conc. 10 μM",63.5 pmol
same,Average Total NAD (pmoles) Concentration from NAD Assay,"[1]; 3-Hour, Conc. 20 μM",63.1 pmol
same,Average Total NAD (pmoles) Concentration from NAD Assay,"[1]; 6-Hour, Conc. 5 μM",50.9 pmol
same,Average Total NAD (pmoles) Concentration from NAD Assay,"[1]; 6-Hour, Conc. 10 μM",54.9 pmol
same,Average Total NAD (pmoles) Concentration from NAD Assay,"[1]; 6-Hour, Conc. 20 μM",58.6 pmol
O=C(Oc1ccc(/C=C/c2cc(O)cc(O)c2)cc1)c1ccc[n+]([C@@H]2O[C@H](CO)[C@@H](O)[C@H]2O)c1,NAD+ level,[2],94 pmol/mg protein
O=C(CCCCC[P+](c1ccccc1)(c1ccccc1)c1ccccc1)NCCOC(=O)c1cccnc1,NAD+ level,[2],<1 pmol/mg protein
CC(C)(C)OC(=O)c1ccc[n+]([C@@H]2O[C@H](CO)[C@@H](O)[C@H]2O)c1,NAD+ level,[2],1162 pmol/mg protein
O=C(Nc1ccccc1C[P+](c1ccccc1)(c1ccccc1)c1ccccc1)c1cccnc1,NAD+ level,[2],666 pmol/mg protein
O=C(NCCCCCC[P+](c1ccccc1)(c1ccccc1)c1ccccc1)c1ccc[n+]([C@@H]2O[C@H](COP(=O)(O)O)[C@@H](O)[C@H]2O)c1 [drawing 172],NAD+ level,[2],449 pmol/mg protein
CC(=O)Oc1cc(/C=C/c2ccc(OC(=O)c3cccnc3)cc2)cc(OC(C)=O)c1,NAD+ level,[2],122 pmol/mg protein
CC(C)Cc1ccc(C(C)C(=O)NCCNC(=O)c2cccnc2)cc1 (stereo not drawn),NAD+ level,[2],697 pmol/mg protein
CCOC(=O)c1ccc[n+]([C@@H]2O[C@H](COC(C)=O)[C@@H](OC(C)=O)[C@H]2OC(C)=O)c1,NAD+ level,[2],674 pmol/mg protein
[2H]c1nc([2H])c(C(=O)NCCCCCC[P+](c2ccccc2)(c2ccccc2)c2ccccc2)c([2H])c1[2H],NAD+ level,[2],435 pmol/mg protein
CC(=O)OC[C@H]1O[C@@H]([n+]2cccc(C(=O)NCCC[P+](c3ccccc3)(c3ccccc3)c3ccccc3)c2)[C@H](OC(C)=O)[C@@H]1OC(C)=O,NAD+ level,[2],292 pmol/mg protein
CC(=O)OCC1OC([n+]2cccc(C(=O)Oc3c(C)c(C)c4c(c3C)CC[C@@](C)(CCC[C@H](C)CCC[C@H](C)CCCC(C)C)O4)c2)C(OC(C)=O)C1OC(C)=O (stereo partly drawn),NAD+ level,[2],301 pmol/mg protein
CC1=C(/C=C/C(C)=C/C=C/C(C)=C/C(=O)NCCNC(=O)c2cccnc2)C(C)(C)CCC1,NAD+ level,[2],815 pmol/mg protein
O=C(OCCOCCCCCC[P+](c1ccccc1)(c1ccccc1)c1ccccc1)c1cccnc1,NAD+ level,[2],230 pmol/mg protein
"O=C(NCCCCCC[P+](c1ccccc1)(c1ccccc1)c1ccccc1)c1ccc[n+]([C@@H]2O[C@H](COP(=O)(O)O)[C@@H](O)[C@H]2O)c1 [Sample 2, 1-((2R,3R,4S,5R)-3,4-dihydroxy-5-((phosphonooxy)methyl)tetrahydrofuran-2-yl)-3-((6-(triphenylphosphonio)hexyl)carbamoyl)pyridin-1-ium]",Average Total NAD (pmoles) Concentration from NAD Assay,"[1]; 3-Hour, Conc. 5 μM",35.5 pmol
same,Average Total NAD (pmoles) Concentration from NAD Assay,"[1]; 3-Hour, Conc. 10 μM",45.5 pmol
same,Average Total NAD (pmoles) Concentration from NAD Assay,"[1]; 3-Hour, Conc. 20 μM",59.3 pmol
same,Average Total NAD (pmoles) Concentration from NAD Assay,"[1]; 6-Hour, Conc. 5 μM",82.2 pmol
same,Average Total NAD (pmoles) Concentration from NAD Assay,"[1]; 6-Hour, Conc. 10 μM",82.0 pmol
same,Average Total NAD (pmoles) Concentration from NAD Assay,"[1]; 6-Hour, Conc. 20 μM",74.5 pmol
same,increase in NAD levels compared with NMN,[1],greater increase in NAD levels than NMN
O=C(NCCCCCC[P+](c1ccccc1)(c1ccccc1)c1ccccc1)c1cccnc1 [drawing 171],NAD+ level,[2],217 pmol/mg protein
O=C(OCCO)c1cccnc1,NAD+ level,[2],501 pmol/mg protein
O=C(NCCCCCC[P+](c1ccccc1)(c1ccccc1)c1ccccc1)c1cccnc1 [Sample 5],Average Total NAD (pmoles) Concentration from NAD Assay,"[1]; 3-Hour, Conc. 5 μM",41.6 pmol
same,Average Total NAD (pmoles) Concentration from NAD Assay,"[1]; 3-Hour, Conc. 10 μM",57.5 pmol
same,Average Total NAD (pmoles) Concentration from NAD Assay,"[1]; 3-Hour, Conc. 20 μM",60.0 pmol
same,Average Total NAD (pmoles) Concentration from NAD Assay,"[1]; 6-Hour, Conc. 5 μM",68.2 pmol
same,Average Total NAD (pmoles) Concentration from NAD Assay,"[1]; 6-Hour, Conc. 10 μM",77.0 pmol
same,Average Total NAD (pmoles) Concentration from NAD Assay,"[1]; 6-Hour, Conc. 20 μM",76.0 pmol
same,increase in NAD levels compared with NMN,[1],greater increase in NAD levels than NMN
CC(C)Cc1ccc(C(C)C(=O)OCCOC(=O)c2cccnc2)cc1 (stereo not drawn),NAD+ level,[2],539 pmol/mg protein
O=C(OCc1ccccc1)c1ccc[n+]([C@@H]2O[C@H](CO)[C@@H](O)[C@H]2O)c1,NAD+ level,[2],463 pmol/mg protein
O=C(NCCNCCCCCCCCC[P+](c1ccccc1)(c1ccccc1)c1ccccc1)c1cccnc1,NAD+ level,[2],395 pmol/mg protein
CC1CCC(C(C)C)C(OC(=O)c2cccnc2)C1 (stereo not drawn),NAD+ level,[2],<1 pmol/mg protein
